Experimental data: ChEMBL document CHEMBL5338797, “Rational Design of Covalent Kinase Inhibitors by an Integrated Computational Workflow (Kin-Cov)” (J Med Chem, 2023)
Active and inactive are the calls of the source. The rule behind the calls is not given here.

Key:
[1] = target: T1, Mitogen-activated protein kinase kinase kinase 20 (Homo sapiens, UniProt Q9NYL2); test: Inhibition of recombinant ZAK (unknown origin) using ATP as substrate preincubated for 60 mins followed by substrate addition and measured after 40 mins by fluorescence based envision multilabel reader method
Target sequence in this assay (Q9NYL2 whole entry): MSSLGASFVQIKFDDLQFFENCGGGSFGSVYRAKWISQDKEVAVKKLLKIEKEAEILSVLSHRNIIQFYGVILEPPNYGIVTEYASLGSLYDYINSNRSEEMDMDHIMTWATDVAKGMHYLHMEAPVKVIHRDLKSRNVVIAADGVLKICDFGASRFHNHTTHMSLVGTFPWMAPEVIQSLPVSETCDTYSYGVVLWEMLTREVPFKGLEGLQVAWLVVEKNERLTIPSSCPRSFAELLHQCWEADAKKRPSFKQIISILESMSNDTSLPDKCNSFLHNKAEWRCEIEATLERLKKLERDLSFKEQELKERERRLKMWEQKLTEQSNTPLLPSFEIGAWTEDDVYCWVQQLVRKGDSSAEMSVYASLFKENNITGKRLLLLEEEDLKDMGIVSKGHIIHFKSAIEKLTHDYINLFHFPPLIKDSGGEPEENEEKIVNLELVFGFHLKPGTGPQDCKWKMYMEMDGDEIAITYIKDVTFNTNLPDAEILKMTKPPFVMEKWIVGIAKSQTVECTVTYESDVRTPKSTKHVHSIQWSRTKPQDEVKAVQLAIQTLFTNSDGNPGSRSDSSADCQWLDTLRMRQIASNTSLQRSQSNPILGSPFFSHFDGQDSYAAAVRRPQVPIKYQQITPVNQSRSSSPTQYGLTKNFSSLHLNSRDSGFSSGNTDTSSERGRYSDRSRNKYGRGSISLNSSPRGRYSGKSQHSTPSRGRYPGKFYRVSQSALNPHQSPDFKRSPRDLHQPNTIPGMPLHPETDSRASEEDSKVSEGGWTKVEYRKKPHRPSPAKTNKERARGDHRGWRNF

[2] = target: Serine/threonine-protein kinase B-raf (Homo sapiens, UniProt P15056, V600E); test: Inhibition of B-RAF V600E mutant (unknown origin) incubated for 1 hr in presence of ATP by envision multilabel reader analysis
Serine/threonine-protein kinase B-raf, sequence (P15056 2-766 V600E limits assumed): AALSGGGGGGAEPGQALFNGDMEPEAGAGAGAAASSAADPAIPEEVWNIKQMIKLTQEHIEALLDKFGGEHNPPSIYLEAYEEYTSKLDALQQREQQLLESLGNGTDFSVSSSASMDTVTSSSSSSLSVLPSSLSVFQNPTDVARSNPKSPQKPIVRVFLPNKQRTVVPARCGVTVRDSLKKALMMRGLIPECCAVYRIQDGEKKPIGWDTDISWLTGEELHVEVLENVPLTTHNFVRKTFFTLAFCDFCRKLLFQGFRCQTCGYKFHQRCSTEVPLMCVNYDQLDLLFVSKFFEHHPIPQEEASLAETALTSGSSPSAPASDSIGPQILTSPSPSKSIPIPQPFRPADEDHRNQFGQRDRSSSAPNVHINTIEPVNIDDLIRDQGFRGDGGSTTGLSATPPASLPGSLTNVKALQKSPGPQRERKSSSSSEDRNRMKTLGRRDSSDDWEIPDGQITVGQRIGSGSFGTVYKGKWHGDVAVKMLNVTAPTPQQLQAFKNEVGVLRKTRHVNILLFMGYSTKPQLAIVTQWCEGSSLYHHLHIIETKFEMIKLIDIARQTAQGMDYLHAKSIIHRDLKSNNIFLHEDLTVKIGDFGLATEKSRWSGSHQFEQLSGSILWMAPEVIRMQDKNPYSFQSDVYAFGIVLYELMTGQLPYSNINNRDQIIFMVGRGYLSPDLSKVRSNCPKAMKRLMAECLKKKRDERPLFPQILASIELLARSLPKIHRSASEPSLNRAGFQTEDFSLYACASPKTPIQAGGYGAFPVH

[3] = target: MAP kinase p38 (Homo sapiens) (UniProt O15264+Q15759+Q16539+P53778); test: Inhibition of p38 phosphorylation in human U2OS cells measured for 1 hr by Western blot analysis; type: cell-based; conditions: dose <= 10.0 µM
[4] = target: T1, Mitogen-activated protein kinase kinase kinase 20; test: Inhibition of partial length human ZAK by KINOMEscan assay
Target sequence in this assay (Q9NYL2 whole entry): as the sequence (Q9NYL2 whole entry) above

[5] = target: T2, LIM domain kinase 1 (Homo sapiens, UniProt P53667); test: Inhibition of full length human LIMK1 by KINOMEscan assay
Target sequence in this assay (P53667 whole entry, the tested form may be a part): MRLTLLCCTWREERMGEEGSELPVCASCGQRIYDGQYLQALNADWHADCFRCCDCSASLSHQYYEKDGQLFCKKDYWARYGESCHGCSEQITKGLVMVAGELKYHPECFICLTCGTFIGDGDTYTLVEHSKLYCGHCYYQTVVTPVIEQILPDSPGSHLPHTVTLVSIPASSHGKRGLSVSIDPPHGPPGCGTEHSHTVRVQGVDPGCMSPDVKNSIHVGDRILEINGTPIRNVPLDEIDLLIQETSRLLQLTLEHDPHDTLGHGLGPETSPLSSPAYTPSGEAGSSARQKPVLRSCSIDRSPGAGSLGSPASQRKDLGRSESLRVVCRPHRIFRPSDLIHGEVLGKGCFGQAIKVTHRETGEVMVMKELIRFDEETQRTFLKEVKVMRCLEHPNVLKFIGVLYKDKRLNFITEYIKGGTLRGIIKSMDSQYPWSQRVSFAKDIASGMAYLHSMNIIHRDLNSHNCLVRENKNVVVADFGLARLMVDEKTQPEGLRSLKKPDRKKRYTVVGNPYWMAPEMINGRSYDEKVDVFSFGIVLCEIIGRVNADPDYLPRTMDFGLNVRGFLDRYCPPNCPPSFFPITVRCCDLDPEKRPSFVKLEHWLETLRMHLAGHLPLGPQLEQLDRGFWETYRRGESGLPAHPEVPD

[6] = target: T3, LIM domain kinase 2 (Homo sapiens, UniProt P53671); test: Inhibition of full length human LIMK2 by KINOMEscan assay
Target sequence in this assay (P53671 whole entry, the tested form may be a part): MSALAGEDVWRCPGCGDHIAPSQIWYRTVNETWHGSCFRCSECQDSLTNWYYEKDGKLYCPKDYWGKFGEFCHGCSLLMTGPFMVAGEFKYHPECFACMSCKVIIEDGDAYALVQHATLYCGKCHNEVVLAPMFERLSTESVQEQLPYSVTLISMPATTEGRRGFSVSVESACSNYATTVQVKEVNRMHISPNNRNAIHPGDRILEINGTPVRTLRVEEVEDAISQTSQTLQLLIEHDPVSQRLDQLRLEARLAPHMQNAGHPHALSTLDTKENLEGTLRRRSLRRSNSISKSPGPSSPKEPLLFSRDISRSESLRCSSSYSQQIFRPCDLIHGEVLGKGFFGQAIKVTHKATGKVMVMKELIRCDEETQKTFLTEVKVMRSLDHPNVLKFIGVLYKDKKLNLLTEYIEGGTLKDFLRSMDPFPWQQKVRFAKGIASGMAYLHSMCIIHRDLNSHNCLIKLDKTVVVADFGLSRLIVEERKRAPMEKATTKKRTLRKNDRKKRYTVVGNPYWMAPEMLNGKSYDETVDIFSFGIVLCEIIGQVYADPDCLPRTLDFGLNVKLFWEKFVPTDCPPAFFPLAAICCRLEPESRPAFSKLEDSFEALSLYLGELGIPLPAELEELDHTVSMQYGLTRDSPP

[7] = target: T4, Tyrosine-protein kinase Lck (Homo sapiens, UniProt P06239); test: Inhibition of partial length human LCK by KINOMEscan assay
Target sequence in this assay (P06239 whole entry): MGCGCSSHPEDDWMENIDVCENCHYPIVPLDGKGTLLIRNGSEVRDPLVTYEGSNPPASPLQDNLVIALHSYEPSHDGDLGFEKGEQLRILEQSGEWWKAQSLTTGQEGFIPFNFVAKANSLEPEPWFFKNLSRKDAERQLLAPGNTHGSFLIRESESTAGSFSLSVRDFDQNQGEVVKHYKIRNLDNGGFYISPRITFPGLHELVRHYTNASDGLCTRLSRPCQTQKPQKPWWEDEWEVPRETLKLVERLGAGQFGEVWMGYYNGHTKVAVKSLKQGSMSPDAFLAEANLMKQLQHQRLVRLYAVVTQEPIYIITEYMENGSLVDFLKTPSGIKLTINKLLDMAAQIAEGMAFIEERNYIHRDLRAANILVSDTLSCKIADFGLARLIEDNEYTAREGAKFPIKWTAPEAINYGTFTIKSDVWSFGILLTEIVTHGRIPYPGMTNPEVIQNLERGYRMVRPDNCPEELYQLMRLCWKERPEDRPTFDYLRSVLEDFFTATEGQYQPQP

[8] = target: T1, Mitogen-activated protein kinase kinase kinase 20; test: Inhibition of ZAKapha (unknown origin) at 10 uM measured after 1 hr by Western blot analysis
Target sequence in this assay (Q9NYL2 2-800 limits assumed): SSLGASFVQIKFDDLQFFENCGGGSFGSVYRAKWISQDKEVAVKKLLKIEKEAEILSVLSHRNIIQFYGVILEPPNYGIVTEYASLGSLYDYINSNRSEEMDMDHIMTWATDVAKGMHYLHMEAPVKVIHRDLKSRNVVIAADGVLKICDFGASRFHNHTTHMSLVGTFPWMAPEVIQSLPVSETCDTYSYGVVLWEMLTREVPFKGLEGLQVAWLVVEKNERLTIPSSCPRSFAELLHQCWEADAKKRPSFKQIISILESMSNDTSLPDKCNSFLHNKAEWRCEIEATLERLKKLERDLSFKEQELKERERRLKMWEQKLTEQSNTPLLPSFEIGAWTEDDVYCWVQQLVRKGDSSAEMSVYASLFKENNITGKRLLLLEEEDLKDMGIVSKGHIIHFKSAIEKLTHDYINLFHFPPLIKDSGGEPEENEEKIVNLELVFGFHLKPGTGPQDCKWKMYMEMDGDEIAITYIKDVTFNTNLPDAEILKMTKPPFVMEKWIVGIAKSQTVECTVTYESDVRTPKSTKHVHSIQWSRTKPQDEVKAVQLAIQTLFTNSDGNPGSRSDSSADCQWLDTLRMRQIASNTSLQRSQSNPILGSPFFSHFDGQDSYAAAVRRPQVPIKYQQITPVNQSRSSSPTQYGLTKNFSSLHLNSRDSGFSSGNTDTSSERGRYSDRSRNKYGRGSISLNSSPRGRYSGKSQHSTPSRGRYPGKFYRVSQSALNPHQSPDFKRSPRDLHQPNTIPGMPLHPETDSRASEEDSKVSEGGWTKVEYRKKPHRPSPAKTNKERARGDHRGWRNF

[9] = target: T1, Mitogen-activated protein kinase kinase kinase 20; test: Inhibition of ZAKbeta (unknown origin) at 10 uM measured after 1 hr by Western blot analysis
Target sequence in this assay (Q9NYL2 2-800 limits assumed): as above

[10] = system: U2OS; test: Induction of apoptosis in ZAK knockout human U2OS cells assessed as reduction in cell death at 10 uM measured after 24 hrs in presence of doxorubicin; type: functional, cell-based
[11] = system: U2OS; test: Induction of apoptosis in human U2OS cells assessed as reduction in cell death at 10 uM measured after 24 hrs in presence of doxorubicin; type: functional, cell-based
[12] = system: U2OS; test: Induction of apoptosis in ZAK knockout human U2OS cells assessed as increase in cleaved-caspase 3 level at 10 uM measured for 4 hrs; type: functional, cell-based
[13] = target: T2, LIM domain kinase 1; test: Inhibition of full length human LIMK1 at 1000 nM by KINOMEscan assay relative to control; values are per cent of control
Target sequence in this assay (P53667 whole entry, looked up, the tested form may be a part): as the sequence (P53667 whole entry, the tested form may be a part) above

[14] = target: T3, LIM domain kinase 2; test: Inhibition of full length human LIMK2 at 1000 nM by KINOMEscan assay relative to control; values are per cent of control
Target sequence in this assay (P53671 whole entry, looked up, the tested form may be a part): as the sequence (P53671 whole entry, the tested form may be a part) above

[15] = target: T1, Mitogen-activated protein kinase kinase kinase 20; test: Inhibition of partial length human ZAK at 1000 nM by KINOMEscan assay relative to control; values are per cent of control
Target sequence in this assay (Q9NYL2 2-800 limits assumed): as the sequence (Q9NYL2 2-800 limits assumed) above

[16] = target: T4, Tyrosine-protein kinase Lck; test: Inhibition of partial length human LCK at 1000 nM by KINOMEscan assay relative to control; values are per cent of control
Target sequence in this assay (P06239 2-509 limits assumed): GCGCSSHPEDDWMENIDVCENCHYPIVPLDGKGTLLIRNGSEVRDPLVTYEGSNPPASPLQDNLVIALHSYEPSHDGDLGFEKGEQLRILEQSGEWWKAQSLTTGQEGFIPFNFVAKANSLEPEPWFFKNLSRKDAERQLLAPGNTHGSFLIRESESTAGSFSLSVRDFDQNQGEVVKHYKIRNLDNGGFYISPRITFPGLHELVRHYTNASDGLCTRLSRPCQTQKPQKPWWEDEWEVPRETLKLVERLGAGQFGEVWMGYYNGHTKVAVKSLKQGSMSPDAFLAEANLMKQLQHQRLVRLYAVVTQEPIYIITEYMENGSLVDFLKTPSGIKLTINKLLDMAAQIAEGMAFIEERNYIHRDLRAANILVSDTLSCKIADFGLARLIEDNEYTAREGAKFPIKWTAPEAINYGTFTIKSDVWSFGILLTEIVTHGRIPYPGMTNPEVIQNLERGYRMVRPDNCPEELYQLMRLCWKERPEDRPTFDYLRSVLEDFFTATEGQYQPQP

[17] = system: U2OS; test: Induction of apoptosis in human U2OS cells assessed as increase in cleaved-caspase 3 level at 100 uM measured for 4 hrs; type: functional, cell-based

Q: How did the IC50 [1] turn out when C=CC(=O)N1CCC(Oc2n[nH]c3ncc(-c4cn(-c5c(F)ccc(NS(=O)(=O)c6ccccc6)c5F)nn4)cc23)C1 (configuration not stated) was run?
A: Its IC50 is 10.1 nM.

Q: What about the IC50 [2] of the same molecule?
A: Its IC50 is 247 nM.

Q: How did the IC50 [1] turn out when C=CC(=O)N1CC[C@H](Oc2n[nH]c3ncc(-c4cn(-c5c(F)ccc(NS(=O)(=O)c6cccc(-c7ccccc7)c6)c5F)nn4)cc23)C1 was run?
A: The IC50 was 9.9 nM.

Q: With C=CC(=O)NCCCCCCN1CCC(COc2n[nH]c3ncc(-c4cn(-c5c(F)ccc(NS(=O)(=O)c6cccc(-c7ccccc7)c6)c5F)nn4)cc23)CC1 as the molecule, how does the IC50 [1] read?
A: The IC50 was 10.1 nM.

Q: Which inhibition [3] does the source give for COc1ccc(C[C@H]2NC[C@H](O)[C@H]2OC(C)=O)cc1 here?
A: Its inhibition is “Dose-Dependent Effect”.

Q: What does the source list for C=CC(=O)N1CCC(Oc2n[nH]c3ncc(-c4cn(-c5c(F)ccc(NS(=O)(=O)c6cccc(-c7ccccc7)c6)c5F)nn4)cc23)C1 (configuration not stated)?
A: IC50 [1]: 11.5 nM; IC50 [2]: > 1000 nM; IC50 [4]: 11.5 nM; IC50 [5]: 12.3 nM; IC50 [6]: 21.3 nM; IC50 [7]: 204 nM; inhibition [3]: Dose-Dependent Effect; inhibition [8]: Active; inhibition [9]: Active; Activity [10]: inactive; Activity [11]: Active; Activity [12]: inactive; residual activity [13]: 9%; residual activity [14]: 6%; residual activity [15]: -4%; residual activity [16]: 8%

Q: For COc1n[nH]c2ncc(-c3cn(-c4c(F)ccc(NS(=O)(=O)c5cccc(-c6ccccc6)c5)c4F)nn3)cc12, which IC50 [1] is on record?
A: The IC50 was 8.8 nM.

Q: What about the IC50 [2] of the same molecule?
A: The IC50 was > 1000 nM.

Q: Which IC50 [1] does the source give for C=CC(=O)N1CC[C@@H](Oc2n[nH]c3ncc(-c4cn(-c5c(F)ccc(NS(=O)(=O)c6cccc(-c7ccccc7)c6)c5F)nn4)cc23)C1 here?
A: The IC50 was 12.3 nM.

Q: For COc1cccc2c1C(=O)c1c(O)c3c(c(O)c1C2=O)C[C@@](O)(C(=O)CO)C[C@@H]3O[C@H]1C[C@H](N)[C@H](O)[C@H](C)O1, which Activity [17] is on record?
A: The Activity was “Active”.

Q: How did the IC50 [1] turn out when C=CC(=O)N1CCCC(NC(=O)CCCCCCOc2n[nH]c3ncc(-c4cn(-c5c(F)ccc(NS(=O)(=O)c6cccc(-c7ccccc7)c6)c5F)nn4)cc23)C1 (configuration not stated) was run?
A: Its IC50 is 34.7 nM.

Q: C=CC(=O)NCCCOc1n[nH]c2ncc(-c3cn(-c4c(F)ccc(NS(=O)(=O)c5cccc(-c6ccccc6)c5)c4F)nn3)cc12 was tested. Which IC50 [1] did it give?
A: Its IC50 is 9.1 nM.
